Data reported in patent publication US20210254056A1, “IDENTIFICATION AND TARGETED MODULATION OF GENE SIGNALING NETWORKS” (CAMP4 THERAPEUTICS CORPORATION, priority 2017, published 2021).

Test system: hepatocytes
Assay: RNA-seq of hepatocytes treated with Phase III failure compounds
Description: RNA-seq was performed to determine the effects of the compounds on hepatocytes.
Significance was determined by the criteria of FPKM≥0.5, a log 2(fold-change)≥1, and a […].

CCCCC(C(=O)c1ccccc1)N1CCCC1 (stereo not drawn) [a-PHP]
significant changes in gene expression: not observed to cause any significant changes in gene expression
significant modulation of expression of any of the genes analyzed (RNA-seq, p≤0.05, hepatocytes): not observed to significantly modulate expression

COc1nc(N)nc2c1ncn2[C@@H]1O[C@H](COP(=O)(N[C@@H](C)C(=O)OCC(C)(C)C)Oc2cccc3ccccc23)[C@@H](O)[C@@]1(C)O (stereo partly drawn) [bms-986094]
Number (#) of genes having significantly changed expression: 2079

COc1cc(Nc2ncc(F)c(Nc3ccc4c(n3)N(COP(=O)(O)O)C(=O)C(C)(C)O4)n2)cc(OC)c1OC [fostamatinib]
significant modulation of expression of disease genes (RNA-seq, q≤0.05, hepatocytes, genes in the value or listed in the block): significantly (q≤0.05) modulate expression
effect on disease gene expression (RNA-seq, hepatocytes): effect on expression of too many disease genes
RNA-seq results: A1BG expression (gene A1BG, hepatocytes): 0.01
RNA-seq results: AGTR1 expression (gene AGTR1, hepatocytes): 0.25
RNA-seq results: AGXT expression (gene AGXT, hepatocytes): 0.45
RNA-seq results: AHI1 expression (gene AHI1, hepatocytes): 0.39
RNA-seq results: AMPD3 expression (gene AMPD3, hepatocytes): −0.90
RNA-seq results: AMT expression (gene AMT, hepatocytes): −0.28
RNA-seq results: ANGPTL3 expression (gene ANGPTL3, hepatocytes): 0.24
RNA-seq results: ANKS4B expression (gene ANKS4B, hepatocytes): 0.49
RNA-seq results: ANKS6 expression (gene ANKS6, hepatocytes): 0.03
RNA-seq results: ANPEP expression (gene ANPEP, hepatocytes): 0.49
RNA-seq results: AOC2 expression (gene AOC2, hepatocytes): 0.64
RNA-seq results: APOA2 expression (gene APOA2, hepatocytes): −0.31
RNA-seq results: APOA5 expression (gene APOA5, hepatocytes): 0.97
RNA-seq results: APOB expression (gene APOB, hepatocytes): 1.87
RNA-seq results: COG5 expression (gene COG5, hepatocytes): −0.12
RNA-seq results: COG6 expression (gene COG6, hepatocytes): 0.18
RNA-seq results: COL1A1 expression (gene COL1A1, hepatocytes): −0.09
RNA-seq results: COX6A1 expression (gene COX6A1, hepatocytes): 0.29
RNA-seq results: CP expression (gene CP, hepatocytes): −0.16
RNA-seq results: CPS1 expression (gene CPS1, hepatocytes): −0.56
RNA-seq results: CPT1A expression (gene CPT1A, hepatocytes): −0.03
RNA-seq results: CPT2 expression (gene CPT2, hepatocytes): 0.28
RNA-seq results: CROT expression (gene CROT, hepatocytes): 0.19
RNA-seq results: CSPP1 expression (gene CSPP1, hepatocytes): −0.09
RNA-seq results: CTC1 expression (gene CTC1, hepatocytes): 0.04
RNA-seq results: CTDSP2 expression (gene CTDSP2, hepatocytes): −0.06
RNA-seq results: CTH expression (gene CTH, hepatocytes): 0.15
RNA-seq results: CTNS expression (gene CTNS, hepatocytes): 0.1
RNA-seq results: CTSF expression (gene CTSF, hepatocytes): 0.07
RNA-seq results: CTSK expression (gene CTSK, hepatocytes): −0.13
RNA-seq results: CYB5A expression (gene CYB5A, hepatocytes): −0.01
RNA-seq results: CYB5R3 expression (gene CYB5R3, hepatocytes): 0.05
RNA-seq results, CYP2B6 expression (gene CYP2B6, hepatocytes): 0.55
RNA-seq results: CYP2B6 expression (gene CYP2B6, hepatocytes): −0.04
RNA-seq results, CYP2C19 expression (gene CYP2C19, hepatocytes): 0.61
RNA-seq results: CYP2C19 expression (gene CYP2C19, hepatocytes): −0.79
RNA-seq results, CYP2D6 expression (gene CYP2D6, hepatocytes): 0.31
RNA-seq results: CYP2D6 expression (gene CYP2D6, hepatocytes): −0.01
RNA-seq results, CYP3A4 expression (gene CYP3A4, hepatocytes): 3.59
RNA-seq results: CYP3A4 expression (gene CYP3A4, hepatocytes): 0.18
RNA-seq results, CYP7B1 expression (gene CYP7B1, hepatocytes): 0.59
RNA-seq results: CYP7B1 expression (gene CYP7B1, hepatocytes): −0.27
RNA-seq results: CYP27A1 expression (gene CYP27A1, hepatocytes): −0.03
RNA-seq results, CYP39A1 expression (gene CYP39A1, hepatocytes): 1.11
RNA-seq results: CYP39A1 expression (gene CYP39A1, hepatocytes): −0.23
RNA-seq results: DAO expression (gene DAO, hepatocytes): −0.06
RNA-seq results: DBT expression (gene DBT, hepatocytes): −0.01
RNA-seq results: DCDC2 expression (gene DCDC2, hepatocytes): −0.57
RNA-seq results: DCXR expression (gene DCXR, hepatocytes): 0.23
RNA-seq results: FABP1 expression (gene FABP1, hepatocytes): −0.33
RNA-seq results: FADD expression (gene FADD, hepatocytes): 0.17
RNA-seq results: FAM111A expression (gene FAM111A, hepatocytes): −0.14
RNA-seq results: FAM111B expression (gene FAM111B, hepatocytes): 1.04
RNA-seq results: FAN1 expression (gene FAN1, hepatocytes): 0.11
RNA-seq results: FARS2 expression (gene FARS2, hepatocytes): −0.7
RNA-seq results: FASLG expression (gene FASLG, hepatocytes): −0.31
RNA-seq results: FGA expression (gene FGA, hepatocytes): −0.24
RNA-seq results: FGD1 expression (gene FGD1, hepatocytes): 0.24
RNA-seq results: FGFR2 expression (gene FGFR2, hepatocytes): −1.3
RNA-seq results: FIG4 expression (gene FIG4, hepatocytes): −0.09
RNA-seq results: FIS1 expression (gene FIS1, hepatocytes): 0.19
RNA-seq results: FTCD expression (gene FTCD, hepatocytes): −0.37
RNA-seq results: FTH1 expression (gene FTH1, hepatocytes): 0.34
RNA-seq results: FUCA1 expression (gene FUCA1, hepatocytes): 0.04
RNA-seq results: FXN expression (gene FXN, hepatocytes): −0.11
RNA-seq results: G6PC3 expression (gene G6PC3, hepatocytes): 0.11
RNA-seq results: G6PC expression (gene G6PC, hepatocytes): −0.55
RNA-seq results: G6PD expression (gene G6PD, hepatocytes): 0.55
RNA-seq results: GALK1 expression (gene GALK1, hepatocytes): 0.19
RNA-seq results: GALK2 expression (gene GALK2, hepatocytes): 0.04
RNA-seq results: GALT expression (gene GALT, hepatocytes): −0.13
RNA-seq results: GATA6 expression (gene GATA6, hepatocytes): −0.12
RNA-seq results: GATM expression (gene GATM, hepatocytes): −0.13
RNA-seq results: GBA expression (gene GBA, hepatocytes): 0.02
RNA-seq results: GBE1 expression (gene GBE1, hepatocytes): −0.01
RNA-seq results: GCH1 expression (gene GCH1, hepatocytes): 0.04
RNA-seq results: GCKR expression (gene GCKR, hepatocytes): −0.15
RNA-seq results: GCLC expression (gene GCLC, hepatocytes): 0.18
RNA-seq results: GOSH expression (gene GOSH, hepatocytes): 0.18
RNA-seq results: RRM2B (gene RRM2B, hepatocytes): 0.45
RNA-seq results: RSAD1 (gene RSAD1, hepatocytes): 0.22
RNA-seq results: SAMHD1 (gene SAMHD1, hepatocytes): −0.22
RNA-seq results: SC5D (gene SC5D, hepatocytes): 0.22
RNA-seq results: SCARB1 (gene SCARB1, hepatocytes): −0.40
RNA-seq results: SCN9A (gene SCN9A, hepatocytes): −0.97
RNA-seq results: SDCCAG8 (gene SDCCAG8, hepatocytes): 0.11
RNA-seq results: SEPN1 (gene SEPN1, hepatocytes): −0.18
RNA-seq results: SERAC1 (gene SERAC1, hepatocytes): −0.05
RNA-seq results: SERPINA1 (gene SERPINA1, hepatocytes): 0.31
RNA-seq results: SERPING1 (gene SERPING1, hepatocytes): 0.27
RNA-seq results: SERPINI1 (gene SERPINI1, hepatocytes): 0.67
RNA-seq results: SETBP1 (gene SETBP1, hepatocytes): −0.46
RNA-seq results: SFXN4 (gene SFXN4, hepatocytes): 0.01
RNA-seq results: SLC10A1 (gene SLC10A1, hepatocytes): 0.97
RNA-seq results: SLC10A3 (gene SLC10A3, hepatocytes): −0.64
RNA-seq results: SLC10A5 (gene SLC10A5, hepatocytes): 1.23
RNA-seq results: SLC10A7 (gene SLC10A7, hepatocytes): −0.12
RNA-seq results: SLC11A2 (gene SLC11A2, hepatocytes): −0.54
RNA-seq results: SLC19A1 (gene SLC19A1, hepatocytes): −0.37
RNA-seq results: SLC19A2 (gene SLC19A2, hepatocytes): −0.01
RNA-seq results: SLC19A3 (gene SLC19A3, hepatocytes): 0.18
RNA-seq results: SLC22A1 (gene SLC22A1, hepatocytes): 0.16
RNA-seq results: SLC22A5 (gene SLC22A5, hepatocytes): −0.46
RNA-seq results: SLC25A1 (gene SLC25A1, hepatocytes): −0.04
RNA-seq results: SLC25A10 (gene SLC25A10, hepatocytes): 0.24
RNA-seq results: SLC25A12 (gene SLC25A12, hepatocytes): −0.27
RNA-seq results: SLC25A13 (gene SLC25A13, hepatocytes): 0.22
RNA-seq results: SLC25A15 (gene SLC25A15, hepatocytes): 1.61
RNA-seq results: SLC25A19 (gene SLC25A19, hepatocytes): 0.07
RNA-seq results: SLC25A20 (gene SLC25A20, hepatocytes): 0.62
RNA-seq results: SLC25A29 (gene SLC25A29, hepatocytes): −0.40
RNA-seq results: SLC25A32 (gene SLC25A32, hepatocytes): −0.06
